Data from US20070264241A1, “Compounds for Enhanced Cancer Therapy” (priority 2004, published 2007).
Entries after “also recorded” stand apart in the source; their conditions may differ.

What was measured:
[1] = tested on: Cx43 in human neural stem cells (HNSC.100); assay: Western blot analysis for Cx43 in neural stem cells; format: cell-based; settings: 0.5 mM 4-PB, up to 4 days
Protocol: Human neural stem cells (HNSC.100 cells, Villa et al Exp Neurol, 2000, 161(1):67-84) were obtained from Alberto Martinez Serrano, Department of Molecular Biology, Center of Molecular Biology Severo Ochoa, Autonomous University of Madrid-CSIC, Campus Cantoblanco, Madrid, 28049, Spain. Neural stem cells were grown to around 50% confluence and then 0.5 mM 4-PB treatment was started and continued for 4 days. Medium was replaced every 2nd day with fresh drug. Whole-cell lysates from three 100 mm petri dishes were solubilized in 100 μl of lysis buffer containing 250 mM Tris-HCl (pH 8.5), 2% SDS, 10% glycerol, 0.05 mM PMSF and protease inhibitor cocktail (Roche). Protein concentrations were quantified using the micro BSA protein assay kit (Pierce). Cell lysates were further mixed with loading buffer containing 1% β-mercaptoethanol, 0.02% bromophenol blue, and 0.1 M DTT. […] For quantification, films were scanned and analyzed with Image Gauge (Version 3.12, Fuji Photo Film Corp.). All results are expressed as means ± SE for the indicated number of experiments (FIG. 13). […] As the bands of protein became visible, the membranes were washed several times and total amount of loaded protein was quantified using computerized densitometric analysis.

[2] = tested on: Cx43 in hGBM-1, hGBM-5 and hGBM-14 cells; assay: Connexin 43 expression by immunocytochemistry and Western blot in primary glioblastoma cultures; format: cell-based, human
Protocol: Tumour cells cultured on laminin/poly-ornithine coated glass chamber slides were washed in phosphate buffered saline (PBS) and fixed in 4% paraformaldehyde in phosphate buffer for 10 minutes. Cells were washed in PBS three times and incubated with primary antibodies diluted in buffer (0.3% TX-100 (Sigma), albumin fraction V (Sigma), phosphate buffer pH 7.0) over night at 4° C. Secondary antibodies conjugated with FITC or Cy3 (Jackson lmmunoresearch Laboratories) were applied for one hour at room temperature, followed by rinsing with PBS. Antibodies bound were visualized with epifluorescence microscopy using a Leica DMRB microscope, and photographs were taken using a Nikon F50 camera. The following antibodies were used at specified dilutions: monoclonal anti GFAP, 1:500 (DAKO), monodonal anti Cx43 (1:1000, Transduction Laboratories), and FITC (1:80)-conjugated secondary antibodies (Jackson lmmunoresearch Laboratories). Primary glioblastoma cells were grown to 75% confluency and cultured for 48 hours in the presence or absence of 4-PB (2, 5 and 10 mM) and processed as previously described (Asklund et al, Exp cell Res, 2003, 284:183-193). […] For quantification, films were scanned and analysed with Image Gauge (version 3.12, Fuji Photo Film Corp.). […] All results are expressed as means ± SE for the indicated number of experiments (FIG. 6).

[3] = tested on: gap junction communication between HNSC100 neural stem cells and glioblastoma cells; assay: Fluorescent dye transfer between neural stem cells and glioma cells; format: cell-based, human; settings: pre-treatment 48 hours with 4-PB, 0.5 mM (stem cells) and 2 mM (glioblastoma cells)
Protocol: Donor human neural stem cells (1×10^5 HNSC100) and recipient human glioblastoma cells (1×10^5 U343MGa) cells were plated each in 4 separate 35 mm petri dishes. […] Donor cells were incubated with 10 μM Dil (a fluorescent lipophilic carbocyanine tracer; Molecular Probes) and 5 μM Calcein-AM (an acetoxymethyl ester derivative; Molecular Probes) for 20 min in complete medium. Cells were washed three times with culture medium and twice with PBS to remove free dye. After trypsinization, cells were pelleted by centrifugation and resuspended in co-culture medium. Donor cells 50% confluent were added to the plate of recipient cells. AGA treatment, when performed, was always continued throughout the experiment. Assessment of functional GJC by Calcein dye transfer from donor to recipient cells was carried out after 4 hours using an Olympus BX50WI microscope.

[4] = tested on: hGBM-1, hGBM-5 and hGBM-14 glioblastoma cultures; assay: MTT assay of cell viability and proliferation in primary glioblastoma cultures; format: cell-based, human
Protocol: Proliferation of cultured glioma cells was assessed by 3-(4,5-dimethylthiazol-2-yl)-2,5-diphenyltetrazolium bromide (MTT, Sigma) assay. MTT tetrazolium salt was dissolved in serum-free culture medium (0.5 mg/ml), added to the cells (150 μl/well) and incubated for 30 min at 37° C. Formazan dye, formed by viable cells, was solubilized in 300 μl of isopropanol. Aliquots (100 μl) of the solutions were transferred to 96-well microplates. The absorbance at 570 nm (with reference at 650 nm) was measured using a microtiter plate spectrophotometer (Anthos HT III). The results were expressed as percentage of viablecells compared to the control sample of untreated cells (100%).

4-phenylbutyrate [4-PB]
level of Cx43 protein (Western blot) [1]: increased; also recorded: upregulated
Cx43 immunoreactivity at the cell surface (immunocytochemistry) ([2]; 5 mM 4-PB for 48 hours): marked increase
non-phosphorylated and phosphorylated isoforms of Cx43 (Western blot) ([2]; 4-PB 2-10 mM, 48 hours): increased quantitatively; also recorded: marked increase
dye transfer from neural stem cells to glioblastoma cells [3]: can induce such gap junction communication; also recorded: substantially enhanced
anti-proliferative effect by phase contrast microscopy ([4]; after 24 hours of treatment): Anti-proliferative effects were seen
4-PB concentration at which the culture shows significant sensitivity (MTT) ([4]; hGBM-1 culture): 5 mM
4-PB concentration at which the culture is significantly affected (MTT) ([4]; hGBM-5 culture): 10 mM
4-PB concentration at which the culture is significantly affected (MTT) ([4]; hGBM-14 culture): 10 mM
